# In ChEMBL document CHEMBL1132475, “Synthesis and in vitro anti-HIV activity in human monocyte-derived macrophages of 2-oxothiazolidine-4(R)-carboxylic acid derivatives” (1999):
# Species on record: Homo sapiens
# Assay: The compound was tested for antiviral activity against HIV-1/Ba-L-infected monocyte-derived macrophages in human at a concentration of 2 mM
# Type: functional
# Details: not given
row,Structure (SMILES),Percent of untreated control
1,CC(C)(C)OC(=O)N[C@@H](CCC(=O)N1C(=O)SC[C@H]1C(=O)O)C(=O)OC(C)(C)C,102%
2,Cl.N[C@@H](CCC(=O)N1C(=O)SC[C@H]1C(=O)O)C(=O)O,83%
3,CC(=O)N1C(=O)SC[C@H]1C(=O)O,34%
4,CC(C)(C)OC(=O)CNC(=O)[C@@H]1CSC(=O)N1,104%
5,O=C1N[C@H](C(=O)O)CS1 [PROCYSTEINE],37
6,CCOC(=O)[C@@H]1CSC(=O)N1,86%
7,O=C(O)CNC(=O)[C@@H]1CSC(=O)N1,45%
8,Cl.N[C@@H](CCC(=O)N1C(=O)SC[C@H]1C(=O)NCC(=O)O)C(=O)O,159%
9,CCOC(=O)[C@@H]1CSC(=O)N1C(=O)CC[C@H](N)C(=O)O.Cl,37%
10,CC(=O)N[C@@H](CS)C(=O)O [ACETYLCYSTEINE],88%

# Species on record: Homo sapiens
# Assay: The compound was tested for antiviral activity against HIV-1/Ba-L-infected monocyte-derived macrophages in human at a concentration of 0.5 mM
# Type: functional
# Details: at 0.5 mM
row,Structure (SMILES),Untreated control [%]
1,O=C1N[C@H](C(=O)OCC(=O)c2ccccc2)CS1,69
2,O=C1N[C@H](C(=O)O)CS1 [PROCYSTEINE],81
